# Source: US10792272B2, “Methods for treatment of Clostridium difficile infections” (priority 2016, dated 2020)
# Columns and labels:
# [1] = system: C. difficile 630 (CD630, ATCC BAA-1382); assay: MIC by broth microdilution against C. difficile 630; type: cell-based, Clostridium difficile; settings: Table 1, strain 630, 20-24 h, 37° C.; for MIC: Clostridioides difficile, ATCCBAA1382
# [2] = system: C. difficile 4118 (CD4118, ATCC BAA-1870, BI/NAP1/027); assay: MIC by broth microdilution against C. difficile 4118; type: cell-based, Clostridium difficile; settings: Table 1, strain 4118, 20-24 h, 37° C.; for MIC: Clostridioides difficile, ATCCBAA1870, read-out: MIC C. difficile 4118
# S. aureus RN4220 = assay: MIC against aerobic bacteria; type: cell-based; settings: aerobic; for MIC: Staphylococcus aureus, RN4220, read-out: MIC S. aureus RN4220
# C. sporogenes ATCC 15579 = assay: microbe, parasite or virus in culture; type: cell-based, Clostridium sporogenes; settings: for MIC: Clostridium sporogenes, ATCC15579, read-out: MIC C. sporogenes ATCC 15579
# [3] = system: C. difficile strains 630 (CD630) and 4118 (CD4118); assay: MIC / growth inhibition against C. difficile, covering both strains; type: cell-based, Clostridium difficile
# B. subtilis ATCC 6051 = assay: MIC against aerobic bacteria; type: cell-based, Bacillus subtilis; settings: aerobic
# S. epidermidis 1457 = assay: MIC against aerobic bacteria; type: cell-based; settings: aerobic
# A. baumannii M2 = assay: MIC against aerobic bacteria; type: cell-based; settings: aerobic
# P. aeruginosa PAO1 = assay: MIC against aerobic bacteria; type: cell-based, Pseudomonas aeruginosa; settings: aerobic
# [4] = system: C. clostridioforme ATCC 25537; assay: MIC against anaerobic bacteria; type: cell-based, Clostridium clostridioforme; settings: anaerobic
# [5] = system: B. thetaiotaomicron ATCC 29148; assay: microbe, parasite or virus in culture; type: cell-based; settings: for MIC B. thetaiotaomicron ATCC 29148: anaerobic
# P. distasonis ATCC 8503 = assay: MIC against anaerobic bacteria; type: cell-based, Parabacteroides distasonis; settings: anaerobic
# P. nigrescens ATCC 33563 = assay: MIC against anaerobic bacteria; type: cell-based, Prevotella nigrescens; settings: anaerobic
# [6] = system: Clostridium difficile strain 4118; assay: Minimum bactericidal concentration (MBC), logarithmic- and stationary-phase cells; type: cell-based; settings: stationary-phase cells of strain 4118; 3-log reduction of inoculum
# Description: The MBClog values of the protonophores were determined to be 0.25-2 μg/mL (˜4 to 8-fold greater than their respective MIC values).
# Clostridium difficile strain 4118 was grown to OD600˜0.4-0.5 (logarithmic phase) or for 24 h (stationary phase), and thereafter added to two-fold serial dilutions of test compounds. Cultures were incubated for 20-24 h at 37° C., and then viable counts were enumerated on BHIS agar plates. […] MBC measurements were performed in duplicate.
# [7] = system: panel of aerobic and anaerobic organisms; type: cell-based
compound,measurement,setting,value
O=C(Nc1ccc(I)cc1)c1cc(I)cc(I)c1O [Compound 7d],MIC C. difficile 630,[1],0.13 µg/mL
same,MIC C. difficile 4118,[2],0.25 µg/mL
"O=C(Nc1ccc(Oc2ccc(Cl)cc2)cc1)c1cc(Cl)cc(Cl)c1O [Compound 8, 3,5-Dichloro-N-(4-(4-chlorophenoxy)phenyl)-2-hydroxybenzamide]",MIC,[1],≤ 0.03 µg/mL
same,MIC,[2],0.06 µg/mL
same,MIC,S. aureus RN4220,0.13 µg/mL
same,MIC,C. sporogenes ATCC 15579,4 µg/mL
same,MIC,"[3]; Clostridioides difficile, one statement covering CD630 and CD4118, read-out: MIC against C. difficile",≤ 0.13 µg/mL
same,enhancement of potency relative to 5g and metronidazole,"[3]; MIC ratio, Table 1",4 fold
same,improvement of activity over vancomycin,"[3]; MIC ratio, Table 1",~32 fold
O=C(Nc1ccc(-c2ccccc2)cc1)c1cc(I)cc(I)c1O [Compound 7a],MIC C. difficile 630,[1],0.5 µg/mL
same,MIC C. difficile 4118,[2],1 µg/mL
O=C(Nc1ccc(Cl)cc1)c1cc(I)cc(I)c1O [Compound 7b],MIC C. difficile 630,[1],0.25 µg/mL
same,MIC C. difficile 4118,[2],0.5 µg/mL
same,MIC B. subtilis ATCC 6051,B. subtilis ATCC 6051,0.06 µg/mL
same,MIC S. aureus RN4220,S. aureus RN4220,0.06 µg/mL
same,MIC S. epidermidis 1457,S. epidermidis 1457,≤0.03 µg/mL
same,MIC A. baumannii M2,A. baumannii M2,32 µg/mL
same,MIC P. aeruginosa PAO1,P. aeruginosa PAO1,>32 µg/mL
same,MIC C. sporogenes ATCC 15579,C. sporogenes ATCC 15579,16 µg/mL
same,MIC C. clostridioforme ATCC 25537,[4],16 µg/mL
same,MIC B. thetaiotaomicron ATCC 29148,[5],>32 µg/mL
same,MIC P. distasonis ATCC 8503,P. distasonis ATCC 8503,8 µg/mL
same,MIC P. nigrescens ATCC 33563,P. nigrescens ATCC 33563,4 µg/mL
CN(C(=O)c1cc(I)cc(I)c1O)c1ccc(Oc2ccccc2)cc1 [Compound 5d],MIC C. difficile 630,[1],>32 µg/mL
same,MIC C. difficile 4118,[2],>32 µg/mL
same,growth inhibitory activity against CD630 and CD4118 (in words),[3],inactive
O=C(Nc1ccc(Oc2ccc(Cl)cc2)cc1)c1cc(I)cc(I)c1O [Compound 5g],MIC C. difficile 630,[1],0.13 µg/mL
same,MIC C. difficile 4118,[2],0.25 µg/mL
same,growth inhibitory activity against CD630 and CD4118 (in words),[3],high in vitro potency
O=C(Nc1ccc2ccccc2c1)c1cc(I)cc(I)c1O [Compound 6a],MIC C. difficile 630,[1],0.5 µg/mL
same,MIC C. difficile 4118,[2],0.5 µg/mL
same,MIC B. subtilis ATCC 6051,B. subtilis ATCC 6051,0.06 µg/mL
same,MIC S. aureus RN4220,S. aureus RN4220,0.25 µg/mL
same,MIC S. epidermidis 1457,S. epidermidis 1457,0.06 µg/mL
same,MIC A. baumannii M2,A. baumannii M2,>32 µg/mL
same,MIC P. aeruginosa PAO1,P. aeruginosa PAO1,>32 µg/mL
same,MIC C. sporogenes ATCC 15579,C. sporogenes ATCC 15579,8 µg/mL
same,MIC C. clostridioforme ATCC 25537,[4],4 µg/mL
same,MIC B. thetaiotaomicron ATCC 29148,[5],>32 µg/mL
same,MIC P. distasonis ATCC 8503,P. distasonis ATCC 8503,16 µg/mL
same,MIC P. nigrescens ATCC 33563,P. nigrescens ATCC 33563,8 µg/mL
same,growth inhibitory activity against CD630 and CD4118 (in words),[3],high in vitro potency
O=C(Nc1ccc(Oc2ccc(F)cc2)cc1)c1cc(I)cc(I)c1O [Compound 5e],MIC C. difficile 630,[1],0.13 µg/mL
same,MIC C. difficile 4118,[2],0.13 µg/mL
same,growth inhibitory activity against CD630 and CD4118 (in words),[3],high in vitro potency
"Cc1ncc([N+](=O)[O-])n1CCO [Metronidazole, metronidazole, reference compound]",MIC,[1],0.25 µg/mL
same,MIC,[2],0.25 µg/mL
same,MBCstat,[6],>32 µg/mL
same,MIC,S. aureus RN4220,> 32 µg/mL
same,MIC,C. sporogenes ATCC 15579,0.25 µg/mL
same,MIC,"[5]; Bacteroides thetaiotaomicron, ATCC29148, read-out: MIC B. thetaiotaomicron ATCC 29148",1 µg/mL
same,antibacterial spectrum (in words),[7],mainly targeted anaerobic bacteria
O=C(Nc1ccc(Oc2ccccc2)cc1)c1cc(I)cc(I)c1 [Compound 5c],MIC C. difficile 630,[1],>32 µg/mL
same,MIC C. difficile 4118,[2],>32 µg/mL
same,growth inhibitory activity against CD630 and CD4118 (in words),[3],inactive
